According to patent publication US10287298B2, “Nitrogen-containing analogs of salinomycin, synthesis and use against cancer stem cells and malaria” (Centre National de la Recherche Scientifique (CNRS), priority 2014, dated 2019):

Tests used:
HMLER CD24− cells [1] = experiment: Cell proliferation and formation of mammospheres; assay type: cell-based, Human
Description: FIG. 2 is a representative phase contrast photomicrographs of mammospheres formed after 11 days in the absence of any added compound (Control) or in the presence of a defined amount of salinomycine, AM5, AM9 or AM13. […] The size of the mammospheres is correlated with progenitor cell proliferation, whereas the number of mammospheres formed after serial passages at clonal density is correlated with the self-renewal capacity of primitive Cancer Stem Cells. […]
FIG. 9 represents images of the third generation of mammospheres formed from individual HMLER CD24low cells treated during 7 days with the indicated drug. The size of the mammospheres is correlated with progenitor cell proliferation capacity, whereas the number of mammospheres formed after serial passages at clonal density is correlated with the self-renewal capacity of primitive Cancer Stem Cells.
AM5, AM9, AM13 and salinomycine were assessed for their capability to inhibit cell proliferation and formation of mammospheres. […]
AM5 and AM23 and salinomycine were assessed for their capability to inhibit cell proliferation and formation of mammospheres.

HMLER CD24− cells [2] = experiment: Cell viability assay (CellTiter-Blue), IC50 assessment; assay type: cell-based, Human
Experimental: (§1) FIG. 1 represents viability of HMLER CD24− cells (full line) and HMLER CD24+ cells (dotted line) at different concentration of salinomycine (1A), AM5 […] or AM13 (1D).
(§2) Cell viability assay was carried out by plating 1000 cells per well in 96-well plates. NAC (2 mM, A9165 Sigma) or DFO (1 mM) were pretreated 2 hours prior to the compound treatment. CellTiter-Blue® Reagent (Promega; G3582) (20 μl/well) was added after 24, 48, or 72 hours treatment and cells were incubated for 1 hour before recording fluorescence (560(20)Ex/590(10)Em) using a Perkin Elmer Wallac 1420 Victor2 Microplate Reader.

HMLER CD24+ cells = experiment: as above; assay type: cell-based; conditions: Homo sapiens, read-out: IC50 CD24+
Experimental: as §1, §2

MDA-MB-231 cells = experiment: Dead cells by DIOC6(3)/DAPI test with cathepsine B inhibitor; assay type: cell-based, Human; conditions: 500 nM; COA74-Me 30 μM; 48 h, 96 h, 108 h
Experimental: From the treatment, dead cells were assessed by DIOC6(3)/DAPI test and analyzed by flow cytometry.

SW620 = experiment: Cell death IC50, Annexin V-FITC/PI flow cytometry; assay type: cell-based; conditions: Homo sapiens, SW-620, 108 h, read-out: IC50 SW620
Experimental: (§3) The cells were seeded in a 6-well plate at density 5.105 cells/well and cultured overnight. The cells were then treated with various concentration (15, 30, 100, 500, 1000 and 10.000 nM) of salinomycine, AM5 and AM23 for 72 h, 96 h and 108 h. After treatment, cell death was quantified using Annexin V-FITC/Propidium Iodide (PI) assay according to the manufacturer's protocol (FITC Annexin V Apoptosis Detection Kit II, 556570, BD Pharmingen™) and analyzed by a LSRFortessa™ flow cytometer (BD Bioscience, San Jose, Calif.). The data were processed using Cell Quest software (BD Biosciences). Dose-response cell death curves were determined for indicated time.
(§4) For tumor cells, the cells are classified in function of their sensitivity of drugs. Here, the most sensitive cells are incubated for 72 h, the middle sensitive cells for 96 h and the less sensitive or resistant cells are incubated for 108 h with drug at several concentrations.
(§5) Concentrations of 30 nM, 500 nm and 1 μM were used for determining the IC50 of drugs.
(§6) Intervals][…]] mean that IC50 is included in this interval with exclusion of the valor 30 nM.
(§7) The SW620 and SW480 cell lines are from colon tumors.

SW480 = experiment: Cell death IC50, Annexin V-FITC/PI flow cytometry; assay type: cell-based; conditions: Homo sapiens, SW480, 108 h, read-out: IC50 SW480
Experimental: as §3, §4, §5, §6, §7

HMLER CD24low cells = experiment: Reactive Oxygen Species (ROS) levels by flow cytometry (CM-H2DCF-DA); assay type: cell-based, Human; conditions: 30 nM, 500 nM or 1 μM, 48 h
Experimental: Reactive Oxygen Species (ROS) levels were measured by flow cytometry or by confocal scanning immunofluorescence microscopy using CM-H2DCF-DA (C6827, invitrogen). Briefly, U2OS and HMLER CD24low cells were treated as indicated in FIG. 11 (30 nM, 500 nM or 1 μM of salinomycine, AM5 or AM23 or untreated during 48 h). Then, these cells were trypsined and incubated with 5 μM CM-H2DCF-DA at 37° C. for 40 min, washed once with PBS and were counterstained with DAPI (0.5 μg/ml) to exclude non-viable cells. The mean fluorescence intensity was determined as ROS production by flow cytometry with LSRFortessa™ cytometer (BD Bioscience, San Jose, Calif.). For immunofluorescence microscopy analysis, cells were seeded on coverslips and were treated with salinomycine derivatives (injection in culture medium then treatment during 24 h, 48 h and 72 h). LysoTracker® Red DND-99 (L-7528, Life technologies) was used to visualize lysosomes. Then, cells were fixed with 4% PFA/PBS. DAPI was used to visualize nuclear DNA. Cell images were obtained using a Deltavision real-time microscope (Applied Precision) or an ApoTome.2 microscope (Zeiss). ImageJ was used for further image processing.
FACS analysis of ROS in cells treated for 48 h is represented in FIG. 17.

HMLE W2 = experiment: Cell death IC50, Annexin V-FITC/PI flow cytometry; assay type: cell-based; conditions: Homo sapiens, read-out: IC50 HMLE W2
Experimental: as §3, §4, §5, §6

Zr75.1 = experiment: Cell death IC50, Annexin V-FITC/PI flow cytometry; assay type: cell-based; conditions: Homo sapiens, ZR-75-1, 72 h, read-out: IC50 Zr75.1
Experimental: as §3, §4, §5, §6

HMLER shECAD = experiment: Cell death IC50, Annexin V-FITC/PI flow cytometry; assay type: cell-based; conditions: Homo sapiens, 72 h, read-out: IC50 HMLER shECAD
Experimental: as §3, §4, §5, §6

MDA-MB-231 = experiment: Cell death IC50, Annexin V-FITC/PI flow cytometry; assay type: cell-based; conditions: Homo sapiens, MDA-MB-231, 96 h, read-out: IC50 MDA-MB-231
Experimental: as §3, §4, §5, §6

MDA-MD-157 = experiment: Cell death IC50, Annexin V-FITC/PI flow cytometry; assay type: cell-based; conditions: Homo sapiens, 96 h, read-out: IC50 MDA-MD-157
Experimental: as §3, §4, §5, §6

MCF-7 = experiment: Cell death IC50, Annexin V-FITC/PI flow cytometry; assay type: cell-based; conditions: Homo sapiens, MCF7, 72 h, read-out: IC50 MCF-7
Experimental: as §3, §4, §5, §6

HBL100 = experiment: Cell death IC50, Annexin V-FITC/PI flow cytometry; assay type: cell-based; conditions: Homo sapiens, HBL-100, read-out: IC50 HBL100
Experimental: as §3, §4, §5, §6

HMLER CD24low = experiment: Cell death IC50, Annexin V-FITC/PI flow cytometry; assay type: cell-based; conditions: Homo sapiens, 72 h, read-out: IC50 HMLER CD24low
Experimental: as §3, §4, §5, §6

BT20 = experiment: Cell death IC50, Annexin V-FITC/PI flow cytometry; assay type: cell-based; conditions: Homo sapiens, BT-20, 108 h, read-out: IC50 BT20
Experimental: as §3, §4, §5, §6

HMLER ID2 = experiment: Cell death IC50, Annexin V-FITC/PI flow cytometry; assay type: cell-based; conditions: Homo sapiens, 72 h, read-out: IC50 HMLER ID2
Experimental: as §3, §4, §5, §6

HMLER GFP = experiment: Cell death IC50, Annexin V-FITC/PI flow cytometry; assay type: cell-based; conditions: Homo sapiens; 1rst sensibility (72 h)
Experimental: as §3, §4, §5, §6

MDA-MB-361 = experiment: Cell death IC50, Annexin V-FITC/PI flow cytometry; assay type: cell-based; conditions: Homo sapiens, MDA-MB-361, 96 h, read-out: IC50 MDA-MB-361
Experimental: as §3, §4, §5, §6

T47D = experiment: Cell death IC50, Annexin V-FITC/PI flow cytometry; assay type: cell-based; conditions: Homo sapiens, Resistant (108 h)
Experimental: as §3, §4, §5, §6

BT474 = experiment: Cell death IC50, Annexin V-FITC/PI flow cytometry; assay type: cell-based; conditions: Homo sapiens, BT-474, 96 h, read-out: IC50 BT474
Experimental: as §3, §4, §5, §6

BT549 = experiment: Cell death IC50, Annexin V-FITC/PI flow cytometry; assay type: cell-based; conditions: Homo sapiens, BT-549, 108 h, read-out: IC50 BT549
Experimental: as §3, §4, §5, §6

MDA-MB-134 = experiment: Cell death IC50, Annexin V-FITC/PI flow cytometry; assay type: cell-based; conditions: Homo sapiens, 96 h, read-out: IC50 MDA-MB-134
Experimental: as §3, §4, §5, §6

[3] = third generation of mammospheres, HMLER CD24low cells treated 7 days

Compound: CCC(C(=O)O)[C@H]1CC[C@H](C)C([C@@H](C)[C@H](O)[C@H](C)C(=O)[C@H](CC)[C@H]2O[C@]3(C=C[C@@H](NC4CC4)[C@]4(CC[C@@](C)([C@H]5CC[C@](O)(CC)[C@H](C)O5)O4)O3)[C@H](C)C[C@@H]2C)O1 (some centres unmarked) [AM23, Sal-cyclopropylamine]
- inhibition of cell proliferation, efficacy in comparison with salinomycine (HMLER CD24− cells [1]; at 30 nM): ten-fold improved efficacy
- number of mammospheres (HMLER CD24− cells [1]; [3]): reduced the number of mammospheres
- size of mammospheres (HMLER CD24− cells [1]; [3]): reduced by the highest dose
- IC50 (HMLER CD24− cells [2]; Homo sapiens, read-out: IC50 CD24−): 43 nM
- activity against CD24 cells compared with salinomycine (HMLER CD24− cells [2]; comparison of the IC50 results): significantly improved activity
- IC50 (HMLER CD24+ cells): 1200 nM
- death of MDA-MB-231 cells in combination with cathepsine B inhibition (MDA-MB-231 cells): combine themselves to induce the death
- IC50 (SW620): 30 to 500 nM
- IC50 (SW480): 30 to 500 nM
- ROS induction (HMLER CD24low cells): induces ROS
- IC50 (HMLE W2): 1000 nM
- IC50 (Zr75.1): 30 to 500 nM
- IC50 (HMLER shECAD): 30 nM
- IC50 (MDA-MB-231): > 1000 nM
- IC50 (MDA-MD-157): 30 to 500 nM
- IC50 (MCF-7): 30 to 500 nM
- IC50 (HBL100): > 1000 nM
- IC50 (HMLER CD24low): < 30 nM
- IC50 (BT20): 30 to 500 nM
- IC50 (HMLER ID2): < 30 nM
- IC50 (HMLER GFP): 30 nM
- IC50 (MDA-MB-361): 1000 nM
- IC50 (T47D): > 1000 nM
- IC50 (BT474): > 1000 nM
- IC50 (BT549): > 1000 nM
- IC50 (MDA-MB-134): > 1000 nM
